“Also recorded” adds a separate entry of the source.
Columns and labels:
[1] = target: T1, OATP1B3 (Homo sapiens, UniProt Q9NPD5); type: in vitro ADME; conditions: 10 μM catalposide, HEK293-OATP1B3
T1 sequence (Q9NPD5 1-702): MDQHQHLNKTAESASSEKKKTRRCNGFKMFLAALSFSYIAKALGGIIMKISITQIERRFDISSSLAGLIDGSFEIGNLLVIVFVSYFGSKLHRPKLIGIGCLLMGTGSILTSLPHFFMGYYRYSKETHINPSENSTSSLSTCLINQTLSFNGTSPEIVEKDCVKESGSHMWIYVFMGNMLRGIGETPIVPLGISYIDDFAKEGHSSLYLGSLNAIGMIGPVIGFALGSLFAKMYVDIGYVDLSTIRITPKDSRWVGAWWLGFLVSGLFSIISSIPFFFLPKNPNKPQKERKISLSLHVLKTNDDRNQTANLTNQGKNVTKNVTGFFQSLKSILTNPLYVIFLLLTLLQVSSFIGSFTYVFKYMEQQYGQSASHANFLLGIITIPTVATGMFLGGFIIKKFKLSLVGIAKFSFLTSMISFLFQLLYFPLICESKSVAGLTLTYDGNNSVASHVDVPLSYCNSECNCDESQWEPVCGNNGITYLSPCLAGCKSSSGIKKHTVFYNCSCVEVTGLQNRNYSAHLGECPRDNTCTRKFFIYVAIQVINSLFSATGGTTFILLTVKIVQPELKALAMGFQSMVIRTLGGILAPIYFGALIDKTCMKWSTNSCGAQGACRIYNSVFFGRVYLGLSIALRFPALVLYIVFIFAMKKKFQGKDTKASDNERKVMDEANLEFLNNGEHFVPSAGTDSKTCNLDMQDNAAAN

[2] = target: T2, OATP1B1 (Homo sapiens, UniProt Q9Y6L6); conditions: 10 μM catalposide, HEK293-OATP1B1
T2 sequence (Q9Y6L6 1-691): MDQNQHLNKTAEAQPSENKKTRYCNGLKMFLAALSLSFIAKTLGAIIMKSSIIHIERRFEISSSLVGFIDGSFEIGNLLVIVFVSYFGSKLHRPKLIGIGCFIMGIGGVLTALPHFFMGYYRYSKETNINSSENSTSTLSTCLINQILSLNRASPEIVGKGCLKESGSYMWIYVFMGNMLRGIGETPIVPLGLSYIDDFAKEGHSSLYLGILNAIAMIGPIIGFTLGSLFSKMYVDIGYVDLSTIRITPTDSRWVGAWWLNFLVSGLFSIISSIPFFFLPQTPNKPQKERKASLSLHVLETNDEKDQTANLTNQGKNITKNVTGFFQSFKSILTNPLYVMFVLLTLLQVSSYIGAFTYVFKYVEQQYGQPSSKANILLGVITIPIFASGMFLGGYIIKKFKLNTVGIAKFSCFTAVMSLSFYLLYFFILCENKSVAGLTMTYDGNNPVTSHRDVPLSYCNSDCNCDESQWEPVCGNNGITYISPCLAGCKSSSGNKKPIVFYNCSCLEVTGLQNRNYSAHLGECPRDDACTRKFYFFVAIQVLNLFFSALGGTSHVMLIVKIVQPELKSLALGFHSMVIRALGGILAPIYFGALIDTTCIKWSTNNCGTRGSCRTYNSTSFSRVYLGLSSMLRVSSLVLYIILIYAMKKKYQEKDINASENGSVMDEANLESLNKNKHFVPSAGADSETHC

[3] = target: P-gp (Homo sapiens, UniProt P08183); experiment: A-to-B and B-to-A transport in LLC-PK1 cells overexpressing P-gp; type: in vitro ADME; conditions: pig, LLC-PK1, Net efflux ratio, probe substrate, LLC-PK1-MDR1 compared with LLC-PK1-mock cells
[4] = target: T1, OATP1B3; experiment: Uptake in HEK293 cells overexpressing OATP1B3; type: in vitro ADME; conditions: probe substrate, functionality check of OATP1B3
[5] = target: T3, OCT1 (Homo sapiens, UniProt O15245); experiment: Uptake in HEK293 cells overexpressing OCT1; type: in vitro ADME; conditions: probe substrate, functionality check of OCT1
T3 sequence (O15245 1-554): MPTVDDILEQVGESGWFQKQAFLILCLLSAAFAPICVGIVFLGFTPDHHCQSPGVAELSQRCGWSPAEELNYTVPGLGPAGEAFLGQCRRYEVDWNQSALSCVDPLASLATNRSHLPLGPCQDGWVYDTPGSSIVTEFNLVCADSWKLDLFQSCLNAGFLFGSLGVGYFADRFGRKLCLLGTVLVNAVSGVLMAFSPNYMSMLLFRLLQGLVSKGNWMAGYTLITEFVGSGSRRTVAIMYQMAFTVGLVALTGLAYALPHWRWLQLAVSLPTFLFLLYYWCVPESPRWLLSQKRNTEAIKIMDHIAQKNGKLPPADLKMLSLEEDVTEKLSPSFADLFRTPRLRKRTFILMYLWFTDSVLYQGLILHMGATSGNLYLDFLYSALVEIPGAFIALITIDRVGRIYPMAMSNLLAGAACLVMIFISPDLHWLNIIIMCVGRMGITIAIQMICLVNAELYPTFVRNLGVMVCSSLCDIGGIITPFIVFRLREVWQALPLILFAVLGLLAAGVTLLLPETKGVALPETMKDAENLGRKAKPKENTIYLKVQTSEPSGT

[6] = target: T4, OCT2 (Homo sapiens, UniProt O15244); experiment: Uptake in HEK293 cells overexpressing OCT2; type: in vitro ADME; conditions: probe substrate, functionality check of OCT2
T4 sequence (O15244 1-555): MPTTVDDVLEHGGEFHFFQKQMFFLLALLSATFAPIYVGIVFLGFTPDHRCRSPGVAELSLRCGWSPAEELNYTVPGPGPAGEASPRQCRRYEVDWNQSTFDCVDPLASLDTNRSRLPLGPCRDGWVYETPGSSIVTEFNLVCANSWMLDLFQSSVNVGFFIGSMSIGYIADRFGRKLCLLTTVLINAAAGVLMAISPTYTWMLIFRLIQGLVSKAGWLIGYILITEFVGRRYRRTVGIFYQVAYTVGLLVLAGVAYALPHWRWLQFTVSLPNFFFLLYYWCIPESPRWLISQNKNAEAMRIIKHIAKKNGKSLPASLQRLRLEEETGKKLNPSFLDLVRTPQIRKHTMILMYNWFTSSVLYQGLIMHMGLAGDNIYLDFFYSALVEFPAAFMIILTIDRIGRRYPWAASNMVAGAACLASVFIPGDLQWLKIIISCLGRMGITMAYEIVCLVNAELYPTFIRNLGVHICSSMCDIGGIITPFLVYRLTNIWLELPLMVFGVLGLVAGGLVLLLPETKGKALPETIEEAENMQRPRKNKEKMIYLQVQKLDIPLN

[7] = target: T5, OAT3 (Homo sapiens, UniProt Q8TCC7); experiment: Uptake in HEK293 cells overexpressing OAT3; type: in vitro ADME; conditions: probe substrate, functionality check of OAT3
T5 sequence (Q8TCC7 1-542): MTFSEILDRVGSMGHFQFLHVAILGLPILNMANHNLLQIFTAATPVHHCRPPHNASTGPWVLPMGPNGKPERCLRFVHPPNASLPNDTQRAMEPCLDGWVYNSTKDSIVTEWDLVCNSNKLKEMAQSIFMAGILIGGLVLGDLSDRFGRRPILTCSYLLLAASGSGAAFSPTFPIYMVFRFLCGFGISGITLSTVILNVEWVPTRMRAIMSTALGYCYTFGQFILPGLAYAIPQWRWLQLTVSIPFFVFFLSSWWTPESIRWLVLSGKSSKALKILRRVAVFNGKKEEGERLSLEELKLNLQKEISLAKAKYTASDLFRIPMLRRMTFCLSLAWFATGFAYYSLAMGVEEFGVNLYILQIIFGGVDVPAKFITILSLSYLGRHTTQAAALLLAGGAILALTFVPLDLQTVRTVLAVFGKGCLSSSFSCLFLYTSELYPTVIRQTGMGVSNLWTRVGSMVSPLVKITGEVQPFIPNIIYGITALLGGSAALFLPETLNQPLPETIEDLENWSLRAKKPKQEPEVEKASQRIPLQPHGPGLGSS

[8] = target: T2, OATP1B1; experiment: Uptake in HEK293 cells overexpressing OATP1B1; type: in vitro ADME; conditions: probe substrate, functionality check of OATP1B1
[9] = target: T6, BCRP (Homo sapiens, UniProt Q9UNQ0); experiment: A-to-B and B-to-A transport in LLC-PK1 cells overexpressing BCRP; type: in vitro ADME; conditions: probe substrate, LLC-PK1-BCRP compared with LLC-PK1-mock cells
T6 sequence (Q9UNQ0 1-655): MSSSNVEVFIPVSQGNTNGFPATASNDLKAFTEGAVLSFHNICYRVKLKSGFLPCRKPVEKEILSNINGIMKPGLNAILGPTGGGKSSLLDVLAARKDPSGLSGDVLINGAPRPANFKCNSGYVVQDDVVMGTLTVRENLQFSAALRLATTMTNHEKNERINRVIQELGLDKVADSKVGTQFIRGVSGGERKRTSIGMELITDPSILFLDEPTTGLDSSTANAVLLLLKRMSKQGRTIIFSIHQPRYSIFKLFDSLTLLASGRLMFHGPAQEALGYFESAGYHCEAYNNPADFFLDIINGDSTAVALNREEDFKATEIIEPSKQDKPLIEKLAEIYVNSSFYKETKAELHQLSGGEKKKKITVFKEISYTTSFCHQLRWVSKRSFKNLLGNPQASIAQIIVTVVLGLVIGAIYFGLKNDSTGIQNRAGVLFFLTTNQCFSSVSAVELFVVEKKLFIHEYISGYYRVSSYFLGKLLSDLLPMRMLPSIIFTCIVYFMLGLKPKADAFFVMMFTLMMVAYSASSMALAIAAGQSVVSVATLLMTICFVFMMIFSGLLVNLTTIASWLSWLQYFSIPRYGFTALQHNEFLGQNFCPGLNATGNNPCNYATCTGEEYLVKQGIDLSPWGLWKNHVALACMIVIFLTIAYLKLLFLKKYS

[10] = target: T1, OATP1B3; conditions: read-out: IC50 as inhibitor of OATP1B3; cited from earlier work
[11] = substrate: O=C(O[C@H]1[C@@H]2C=CO[C@@H](O[C@@H]3O[C@H](CO)[C@@H](O)[C@H](O)[C@H]3O)[C@@H]2[C@@]2(CO)O[C@@H]12)c1ccc(O)cc1; experiment: Uptake in HEK293 cells overexpressing OATP1B1; type: in vitro ADME; conditions: other: OATP1B1-mediated uptake, 2–500 μM catalposide, 5 minutes; 37.0 °C

Chain of P-gp (P08183 whole entry): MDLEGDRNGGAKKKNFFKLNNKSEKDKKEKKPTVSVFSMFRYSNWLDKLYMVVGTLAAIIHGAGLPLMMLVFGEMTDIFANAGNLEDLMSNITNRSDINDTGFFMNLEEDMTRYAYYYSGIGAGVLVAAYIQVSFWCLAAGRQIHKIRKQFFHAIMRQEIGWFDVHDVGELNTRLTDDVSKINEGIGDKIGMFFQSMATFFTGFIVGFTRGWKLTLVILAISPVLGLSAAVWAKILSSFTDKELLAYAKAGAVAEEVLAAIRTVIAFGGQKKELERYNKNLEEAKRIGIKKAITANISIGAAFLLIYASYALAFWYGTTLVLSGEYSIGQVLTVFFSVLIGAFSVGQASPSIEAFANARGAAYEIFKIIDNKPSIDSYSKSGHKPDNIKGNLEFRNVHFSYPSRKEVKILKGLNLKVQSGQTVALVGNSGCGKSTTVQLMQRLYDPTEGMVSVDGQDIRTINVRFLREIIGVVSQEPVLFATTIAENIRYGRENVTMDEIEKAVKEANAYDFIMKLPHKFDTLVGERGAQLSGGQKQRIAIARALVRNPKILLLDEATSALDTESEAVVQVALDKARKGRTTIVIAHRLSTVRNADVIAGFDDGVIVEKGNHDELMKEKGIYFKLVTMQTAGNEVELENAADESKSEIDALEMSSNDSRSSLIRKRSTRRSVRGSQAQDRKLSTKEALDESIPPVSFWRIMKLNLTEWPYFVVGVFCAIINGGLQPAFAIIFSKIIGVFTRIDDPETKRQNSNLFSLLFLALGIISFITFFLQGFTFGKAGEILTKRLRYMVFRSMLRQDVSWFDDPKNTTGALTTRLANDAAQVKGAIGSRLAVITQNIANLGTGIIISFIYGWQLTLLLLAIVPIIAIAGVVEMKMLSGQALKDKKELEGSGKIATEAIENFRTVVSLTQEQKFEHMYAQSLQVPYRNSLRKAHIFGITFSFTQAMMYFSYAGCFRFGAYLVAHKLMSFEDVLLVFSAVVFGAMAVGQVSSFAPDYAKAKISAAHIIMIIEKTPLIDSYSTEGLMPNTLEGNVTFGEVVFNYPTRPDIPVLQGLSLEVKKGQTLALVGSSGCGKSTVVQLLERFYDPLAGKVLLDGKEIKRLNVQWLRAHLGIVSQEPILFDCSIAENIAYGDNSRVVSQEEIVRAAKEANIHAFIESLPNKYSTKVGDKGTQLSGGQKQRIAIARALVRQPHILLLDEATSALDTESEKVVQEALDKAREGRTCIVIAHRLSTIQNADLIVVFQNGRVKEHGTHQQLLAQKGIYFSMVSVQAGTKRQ

CO[C@H]1/C=C/O[C@@]2(C)Oc3c(C)c(O)c4c(O)c(c(/C=N/N5CCN(C)CC5)c(O)c4c3C2=O)NC(=O)/C(C)=C\C=C\[C@H](C)[C@H](O)[C@@H](C)[C@@H](O)[C@@H](C)[C@H](OC(C)=O)[C@@H]1C [rifampin]
Effect on OATP1B3-mediated catalposide uptake [1]: decreased to basal levels; also recorded: inhibitory effects
Effect on OATP1B1-mediated catalposide uptake [2]: decreased to basal levels; also recorded: inhibitory effects

C[C@H]1O[C@@H](O[C@H]2[C@@H](O)C[C@H](O[C@H]3[C@@H](O)C[C@H](O[C@H]4CC[C@@]5(C)[C@H](CC[C@@H]6[C@@H]5C[C@@H](O)[C@]5(C)[C@@H](C7=CC(=O)OC7)CC[C@]65O)C4)O[C@@H]3C)O[C@@H]2C)C[C@H](O)[C@@H]1O [digoxin]
efflux ratio at 1 h [3]: 5.7

C[C@]12CC[C@@H]3c4ccc(O)cc4CC[C@H]3[C@@H]1CC[C@@H]2O[C@@H]1O[C@H](C(=O)O)[C@@H](O)[C@H](O)[C@H]1O [EG, estradiol-17β-D-glucuronide]
Fold increase in uptake vs HEK293 mock cells [4]: 15.0 fold

C[n+]1ccc(-c2ccccc2)cc1 [MPP^+, methyl-4-phenylpyridinium]
Fold increase in uptake vs HEK293 mock cells [5]: 13.2 fold
Fold increase in uptake vs HEK293 mock cells [6]: 17.8 fold

C[C@]12CC[C@@H]3c4ccc(OS(=O)(=O)O)cc4CC[C@H]3[C@@H]1CCC2=O [ES, estrone-3-sulfate]
Fold increase in uptake vs HEK293 mock cells [7]: 18.9 fold
Fold increase in uptake vs HEK293 mock cells [8]: 17.3 fold
Net efflux ratio [9]: 4.6

Cc1ccc(C)c(OCCCC(C)(C)C(=O)O)c1 [gemfibrozil]
Effect on OATP1B3-mediated catalposide uptake [1]: decreased to basal levels; also recorded: inhibitory effects
Effect on OATP1B1-mediated catalposide uptake [2]: decreased to basal levels; also recorded: inhibitory effects
IC50 [10]: ~200 µM

B1: OATP1B1 (Homo sapiens) (protein)
chain: T2 sequence (Q9Y6L6 1-691)
Km [11]: 220.5 µM
Vmax [11]: 7.7 pmol/min

From PMC4310350 (Drug Design, Development and Therapy, 2015)
